Assay results published in patent publication US20210178012A1, “FOAM WOUND DRESSING COMPRISING AN ANTISEPTIC” (Coloplast A/S, priority 2018, published 2021).

Experiments:
[1] = Octenidine in foam, no surfactant: extraction from impregnated hydrophilic polyurethane foam discs; format: physicochemical; conditions: plain foam, 24 h extraction
Description: Discs of hydrophilic polyurethane foam were impregnated by applying a known volume of octenidine-containing solution to the surface of the foam and letting it soak into the foam matrix in a liquid:foam ratio which allowed the foam to be saturated with liquid. Afterwards, the impregnated foam was dried at RT overnight. The dried foam disc was immersed in the extraction media for 24 h and the extracted octenidine concentration was determined by UV at 285 nm

[2] = Previous zone of inhibition studies (not shown); format: cell-based; conditions: pure octenidine impregnated into foam without surfactants
[3] = 0.1 w % OCT in impregnation solution
[4] = 0.5 w % OCT in impregnation solution
[5] = 1.0 w % OCT in impregnation solution

CCCCCCCCN=c1ccn(CCCCCCCCCCn2ccc(=NCCCCCCCC)cc2)cc1 [Octenidine, octenidine]
Release % phosphate buffer (23 mM) [1, 3]: 7% | Release % water [1, 3]: 5% | Release % phosphate buffer (23 mM) [1, 4]: 13% | Release % water [1, 4]: 1.5% | Release % phosphate buffer (23 mM) [1, 5]: 20% | Release % water [1, 5]: 1.5% | zones in a zone of inhibition study [2]: small or no zones
